Reference: patent US6228345A, “In vivo assay for intravasation” (Mount Sinai School of Medicine of New York University, priority 1999, dated 2001)

Columns and labels:
HEp3 cells = assay: Intravasation assay: chick embryo CAM with Alu-PCR of lower CAM; assay type: in vivo, human
MMP-9 = assay: Gelatin gel zymography of HEp3 conditioned medium, MMP-9; assay type: biochemical, human; details: 80 nM
Description: (§1) FIG. 10. […] Serum-free conditioned medium of HEp3 cells was collected and electrophoresed on PAGE by loading 10 μl into each of five wells. The gel was sliced to include one sample per slice and each slice was incubated with marimastat at the indicated concentrations (0-1.6 μM) and the gels were incubated only for 22 hr.
(§2) Ten μl aliquots of conditioned media were electrophoresed at 4° C. on 8% PAGE containing 0.1% gelatin, the gel washed in 2.5% Triton X-100 for 30 min, rinsed in water, and incubated for 40 hrs at 37° C. in buffer containing 50 mM Tris pH 7.7, 5 mM CaCl2, and 0.02% NaN3. To test for inhibition of MMPs by BB2516, HEp3 cell conditioned medium was electrophoresed in quadruplicate. The gel was cut into 4 fragments each containing one sample (lane) and incubated separately as above except that marimastat was added in increasing concentration to the incubation buffer. All gels were stained with Coomassie blue, de-stained and dried between dialysis sheets.

MMP-1 = assay: Gelatin gel zymography of HEp3 conditioned medium, MMP-1; assay type: biochemical, human; details: 80 nM
Description: as §1, §2

MMP-2 = assay: Gelatin gel zymography of HEp3 conditioned medium, MMP-2; assay type: biochemical, human; details: 1.6 μM, highest concentration tested
Description: as §1, §2

[1] = test system: MMP-1, MMP-2, MMP-3, MMP-7 and MMP-9; details: one range printed for MMP-1, MMP-2, MMP-3, MMP-7 and MMP-9 together; cited from earlier work

For `CNC(=O)[C@@H](NC(=O)[C@H](CC(C)C)[C@H](O)C(=O)NO)C(C)(C)C` [marimastat], the inhibition of intravasation (HEp3 cells; 200 μM inhibitor, compared with 100 μM) was “less effective”, the inhibition of intravasation (HEp3 cells; final concentration of 50 nM, separate experiment) was “more than 60%” and the “inhibition of MMP-9 activity (zymogram)” value (MMP-9) was “block most”. For the same molecule, the “inhibition of MMP-1 activity (zymogram)” value (MMP-1) was “all of the MMP-1 activity”, the “inhibition of MMP-2 activity (zymogram)” value (MMP-2) was “residual lysis zone” and the “inhibition of MMP-2 activity (zymogram)” value (MMP-2; listed as Marimastat) was “not completely inhibited”. For the same molecule, the IC50 [1] was […].
